According to patent publication US20050075375A1 (priority 2003, published 2005):

Test system: monocistronic NK5.1 HCV replicon in Huh7 cells
Test: HCV replicon assay, monocistronic replicon cell line
Assay type: cell-based, hepatitis C virus
Conditions: Hepatitis C virus, Huh-7, 72 h; Table 1; monocistronic replicon in Huh7 cells, 3 days incubation, HCV RNA/GAPDH RNA by TaqMan RT-PCR; read-out: Mono EC50 Median
Excerpt: HCV Replicon Assays (Replicon EC50 (μM))
HCV replication can be measured by a replicon assay such as described by Vrolijk et al, J. Virol. Methods 110:201(2003), which is hereby incorporated in its entirety by reference. The method was implemented as follows.
Monocistronic Replicon Cell Line:
Human hepatocyte Huh7 cells containing the monocistronic NK5.1 replicon were obtained from Ralf Bartenschlager at the University of Mainz, Germany. These cells were maintained under hygromycin selection and passaged when 80-90% confluent.
This cell line contains an autonomously replicating RNA element (replicon) incorporating the non-structural HCV elements necessary for replication, and upon which the survival of the replicon in the cell depends. This replicon contains a single internal ribosome entry site (HCV IRES). Inhibition of any of the critical HCV finctions by a compound leads to loss of the replicon as measured by HCV replicon RNA copy number reduction. The amount of HCV RNA present following a standard incubation with a compound is a measure of the anti-HCV activity of the compound. The assay was conducted by preparing sufficient 96-well plates containing these cells, wherein cells are seeded at 6000 cells/well in a 96-well plate, in 200 μl of final media volume. Cells were then incubated for 24 hours at 37 C., 5% CO2, and 95% humidity before compound was added. Six point half-log concentration response assays were conducted to determine potency/EC50 of Formula I compounds to inhibit HCV replicon replication. The final percent DMSO acceptable in this assay system is 0.6%. Compounds were diluted in media in an appropriate format and 5 μl of each drug dilution is added to each well. Cells were then incubated with compounds for 3 days at 37 C., 5% CO2, and 95% humidity. Following the three day incubation period, plates were washed twice with phosphate buffered saline to remove media and cells were lysed with Qiagen extraction buffer. RNA was extracted and isolated with the Qiagen RNAeasy kit according to the manufacturer's protocol (Qiagen). TaqMan One-Step RT-PCR was used in conjunction with an ABI 7700 Sequence Detector (Applied Biosystems) for the quantitation and analysis of HCV replicon RNA copy number. A GAPDH probe was used for internal normalization. The ratio of HCV RNA to cellular GAPDH RNA was determined and compared to the DMSO-only treated control, and the ratio of HCV RNA/GAPDH RNA was used for an EC50 determination and as a measure of specificity for inhibition of the HCV replicon.

Structure (SMILES) | EC50 [µM]
COc1ccc(OCc2ccccc2)c(-c2ccn(-c3ccccn3)n2)c1 [Compound 82, 2-[3-(2-Benzvloxy-5-methoxy-phenvl)-pvrazol-1-yl]-pyridine] | 4.3
COc1ccc(OCc2ccccc2)c(-c2ccnn2-c2ccccn2)c1 [Compound 83, 2-[5-(2-Benzvloxy-5-methoxy-phenyl)-pvrazol-1-yl]-pyridine] | 31
COc1ccc(O)c(-c2ccn(-c3ccccn3)n2)c1 [Compound 84, 4-Methoxy-2-(1-pyridin-2-yl-1H-pyrazol-3-yl)-phenol] | 3.3
COc1ccc(O)c(-c2ccnn2-c2ccccn2)c1 [Compound 85, 4-Methoxy-2-(2-pyridin-2-yl-2H-pyrazol-3-yl)-phenol] | > 32
COc1ccc(O)c(-c2ccn(-c3ncccc3C(F)(F)F)n2)c1 [Compound 86, 4-Methoxy-2-[1-(3-trifluoromethyl-pyridin-2-yl)-1H-pyrazol-3-yl]-phenol] | 7.8
c1ccc(COc2ccc3ccccc3c2-c2ccn(-c3ccccn3)n2)cc1 [Compound 87, 2-[3-(2-Benzyloxy-naphthalen-1-yl)-pyrazol-1-yl]-pyridine] | > 32
COc1ccc(-c2ccn(-c3ccccn3)n2)c(O)c1 [Compound 88, 5-Methoxy-2-(1-pyridin-2-yl-1H-pyrazol-3-yl)-phenol] | > 32
COc1ccc(-c2ccn(-c3ncccc3C(F)(F)F)n2)c(O)c1 [Compound 89, 5-Methoxy-2-[1-(3-trifluoromethyl-pyridin-2-yl)-1H-pyrazol-3-yl]-phenol] | 8.8
COc1ccc(-c2ccn(-c3ncccc3C(F)(F)F)n2)c(OCc2ccccc2)c1 [Compound 90] | 4.4
COc1ccc(-c2ccn(-c3ncccc3C)n2)c(O)c1 [Compound 91, 5-Methoxy-2-[1-(3-methyl-pyridin-2-yl)-1H-pyrazol-3-yl]-phenol] | 9.1
COc1ccc(-c2ccn(-c3ncccc3C)n2)c(OCc2ccccc2)c1 [Compound 92, 2-[3-(2-Benzyloxy-4-methoxy-phenyl)-pyrazol-1-yl]-3-methyl-pyridine] | 5.2
COc1ccc(O)c(-c2ccn(-c3ncccc3C)n2)c1 [Compound 93, 4-Methoxy-2-[l-(3-methyl-pyridin-2-yl)-1H-pyrazol-3-yl]-phenol] | 9.1
Cc1c2c(=O)oc3ccccc3c2nn1-c1ccccn1 [Compound 94] | 8.9
COc1ccc2oc(=O)c3c(C)n(-c4ccccn4)nc3c2c1 [Compound 95] | 5.8
COc1cccc(OCc2ccccc2)c1-c1ccn(-c2ccccn2)n1 [Compound 96, 2-[3-(2-Benzyloxy-6-methoxy-phenyl)-pyrazol-1-yl]-pyridine] | 8.6
Oc1ccc(Br)cc1-c1ccn(-c2ccccn2)n1 [Compound 97, 4-Bromo-2-(1-pyridin-2-yl-1H-pyrazol-3-yl)-phenol] | 22
Brc1ccc(OCc2ccccc2)c(-c2ccn(-c3ccccn3)n2)c1 [Compound 98, 2-[3-(2-Benzyloxy-5-bromo-phenyl)-pyrazol-1-yl]-pyridine] | 15
Cc1cccnc1-n1ccc(-c2cc(Br)ccc2O)n1 [Compound 99, 4-Bromo-2-[1-(3-methyl-pyridin-2-yl)-1H-pyrazol-3-yl]-phenol] | 3.6
Oc1ccc(Br)cc1-c1ccn(-c2ncccc2C(F)(F)F)n1 [Compound 100, 4-Bromo-2-[1-(3-trifluoromethyl-pyridin-2-yl)-1H-pyrazol-3-yl]-phenol] | 2.3
COc1ccc(O)c(-c2ccn(Cc3ncc(C)c(OC)c3C)n2)c1 [Compound 101, 4-Methoxy-2-[1-(4-methoxy-3,5-dimethyl-pyridin-2-ylmethyl)-1H-pyrazol-3-yl]-phenol] | 14.6
COc1ccc(O)c(-c2ccn(-c3ccc(C(=O)N4CCCCC4)cn3)n2)c1 [Compound 102, {6-[3-(2-Hydroxy-5-methoxy-phenyl)-pyrazol-1-yl]-pyridin-3-yl)-piperidin-1-yl-methanone] | > 32
COc1ccc(OCc2ccccc2)c(-c2ccn(Cc3nccc(OC)c3OC)n2)c1 [Compound 103, 2-[3-(2-Benzyloxy-5-methoxy-phenyl)-pyrazol-1-ylmethyl]-3,4-dimethoxy-pyridine] | > 32

Structure (SMILES) | EC50 [µM]
COc1ccc(O)c(-c2ccn(-c3ncccc3C(=O)N3CCCCC3)n2)c1 [Compound 104, {2-[3-(2-Hydroxy-5-methoxy-phenyl)-pyrazol-1-yl]-pyridin-3-yl}-piperidin-1-yl-methanone] | > 32
COc1ccc(O)c(-c2ccn(Cc3nccc(OC)c3OC)n2)c1 [Compound 105, 2-[1-(3,4-Dimethoxy-pyridin-2-ylmethyl)-1H-pyrazol-3-yl]-4-methoxy-phenol] | > 32
Oc1ccc(Br)cc1-c1ccnn1-c1ncccc1C(F)(F)F [Compound 106, 4-Bromo-2-[2-(3-trifluoromethyl-pyridin-2-yl)-2H-pyrazol-3-yl]-phenol] | 15
FC(F)(F)c1cccnc1-n1nccc1-c1cc(Br)ccc1OCc1ccccc1 [Compound 107, 2-[5-(2-Benzyloxy-5-bromo-phenyl)-pyrazol-1-yl]-3-trifluoromethyl-pyridine] | 2.6
FC(F)(F)c1cccnc1-n1ccc(-c2cc(Br)ccc2OCc2ccccc2)n1 [Compound 108, 2-[3-(2-Benzyloxy-5-bromo-phenyl)-pyrazol-1-yl]-3-trifluoromethyl-pyridine] | > 32
COc1ccc(O)c(-c2ccnn2Cc2ccc3ccccc3n2)c1 [Compound 109, 4-Methoxy-2-(2-quinolin-2-ylmethyl-2H-pyrazol-3-yl)-phenol] | > 32
COc1ccc(OCc2ccccc2)c(-c2ccnn2Cc2ccc3ccccc3n2)c1 [Compound 110, 2-[5-(2-Benzyloxy-5-methoxy-phenyl)-pyrazol-1-ylmethyl]-quinoline] | 8
COc1ccc(O)c(-c2ccn(Cc3ccc4ccccc4n3)n2)c1 [Compound 111, 4-Methoxy-2-(1-quinolin-2-ylmethyl-1H-pyrazol-3-yl)-phenol] | 14
COc1ccc(OCc2ccccc2)c(-c2ccn(Cc3ccc4ccccc4n3)n2)c1 [Compound 112, 2-[3-(2-Benzyloxy-5-methoxy-phenyl)-pyrazol-1-ylmethyl]-quinoline] | 6
COc1ccc(O)c(-c2ccn(Cc3ccccn3)n2)c1 [Compound 113, 4-Methoxy-2-(1-pyridin-2-ylmethyl-1H-pyrazol-3-yl)-phenol] | > 32
COc1ccc(OCc2ccccc2)c(-c2ccn(Cc3ccccn3)n2)c1 [Compound 114, 2-[3-(2-Benzyloxy-5-methoxy-phenyl)-pyrazol-1-ylmethyl]-pyridine] | 9.5
COc1ccc(O)c(-c2ccnn2Cc2ccccn2)c1 [Compound 115, 4-Methoxy-2-(2-pyridin-2-ylmethyl-2H-pyrazol-3-yl)-phenol] | > 32
COc1ccc(OCc2ccccc2)c(-c2ccnn2Cc2ccccn2)c1 [Compound 116, 2-[5-(2-Benzyloxy-5-methoxy-phenyl)-pyrazol-1-ylmethyl]-pyridine] | 13
COc1ccc(O)c(-c2ccn(-c3ncccc3[N+](=O)[O-])n2)c1 [Compound 117, 4-Methoxy-2-[1-(3-nitro-pyridin-2-yl)-1H-pyrazol-3-yl]-phenol] | 25.4
COc1ccc(-c2ccn(-c3ccccn3)n2)c(O)c1OC [Compound 118, 2,3-Dimethoxy-6-(1-pyridin-2-yl-1H-pyrazol-3-yl)-phenol] | 23.8
COc1ccc(-c2ccn(-c3ncccc3C)n2)c(O)c1OC [Compound 119, 2,3-Dimethoxy-6-[1-(3-methyl-pyridin-2-yl)-1 H-pyrazol-3-yl]-phenol] | 11.8
COc1cc(O)c(-c2ccn(-c3ccccn3)n2)cc1OC [Compound 120, 4,5-Dimethoxy-2-(1-pyridin-2-yl-1H-pyrazol-3-yl)-p henol] | 31.2
COc1cc(OCc2ccccc2)c(-c2ccn(-c3ccccn3)n2)cc1OC [Compound 121, 2-[3-(2-Benzyloxy-4,5-dimethoxy-phenyl)-pyrazol-1-yl]-pyridine] | 13.5
COc1cc(O)c(-c2ccn(-c3ncccc3C)n2)cc1OC [Compound 122, 4,5-Dimethoxy-2-[l-(3-methyl-pyridin-2-yl)-1H-pyrazol-3-yl]-phenol] | 13
Oc1ccccc1-c1cc(-c2ccccn2)on1 [Compound 123, 2-(5-Pyridin-2-yl-isoxazol-3-yl)-phenol] | > 32
COc1cccc(-c2cc(-c3ccccn3)on2)c1O [Compound 124, 2-Methoxy-6-(5-pyridin-2-yl-isoxazol-3-yl)-phenol] | 26
